From PubChem BioAssay AID1259411 (Chemical Carcinogenesis Research Information System (CCRIS), 2018) come the findings set out here.

Active and inactive are the calls of the source. How the calls were made is not given here.

The series relates to rodent carcinogenicity bioassays, tumor incidence. In words: CCRIS carcinogenicity studies. A digest of the protocol:
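Archive of carcinogenicity, mutagenicity, tumor promotion and tumor inhibition results drawn from journals, NCI reports and other sources, expert-reviewed; covers 1985-2011 and is no longer updated.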

Consider `O=NN(CCO)CCO`, for which the carcinogen call (Species: HAMSTER, Route: SUBCUTANEOUS, Tumor Site: Type of Lesion: LIVER, INJECTION SITE, NASAL CAVITY, TRACHEA, Tumor Site: Type of Lesion: LIVER, INJECTION SITE, NASAL CAVITY, TRACHEA) was “active; positive”; the carcinogen call (Species: HAMSTER, Strain/Sex: SYRIAN/FEMALE, Route: SUBCUTANEOUS, Dose: 0, 250, 500, 1000 MG/KG IN SALINE 1/WK FOR DURATION OF STUDY (STUDY DURATION: 41-59 WK), Dose: 0, 250, 500, 1000 MG/KG IN SALINE 1/WK FOR DURATION OF STUDY (STUDY DURATION: 41-59 WK), Tumor Site: Type of Lesion: NASAL CAVITY: ADENOCARCINOMA, TRACHEA: PAPILLARY POLYP, LARYNX: PAPILLARY POLYP, Tumor Site: Type of Lesion: NASAL CAVITY: ADENOCARCINOMA, TRACHEA: PAPILLARY POLYP, LARYNX: PAPILLARY POLYP) is “active; positive”; the carcinogen call (Species: HAMSTER, Strain/Sex: SYRIAN/MALE, Route: SUBCUTANEOUS, Dose: 0, 250, 500, 1000 MG/KG IN SALINE 1/WK FOR DURATION OF STUDY (STUDY DURATION: 45-54 WK), Dose: 0, 250, 500, 1000 MG/KG IN SALINE 1/WK FOR DURATION OF STUDY (STUDY DURATION: 45-54 WK), Tumor Site: Type of Lesion: NASAL CAVITY: ADENOCARCINOMA, TRACHEA: PAPILLARY POLYP, LARYNX: PAPILLARY POLYP, Tumor Site: Type of Lesion: NASAL CAVITY: ADENOCARCINOMA, TRACHEA: PAPILLARY POLYP, LARYNX: PAPILLARY POLYP) was “active; positive”; the carcinogen call (Species: MOUSE, Strain/Sex: STRAIN-A/FEMALE, Route: ORAL, Dose: 0, 0.2 UMOL/ML IN DRINKING WATER FOR 10 WK (TOTAL DOSE: 0, 55 UMOL) FOLLOWED BY TAP WATER FOR 20 WK (STUDY DURATION: 30, Tumor Site: Type of Lesion: LUNG: TUMORS) is “active; positive”; the carcinogen call (Species: RAT, Route: ORAL, Tumor Site: Type of Lesion: KIDNEY, LIVER) was “active; positive”; the carcinogen call (Species: RAT, Strain/Sex: F344/FEMALE, Route: ORAL, Dose: 0, 150 MG/L IN DRINKING WATER 5 D/WK FOR 50 WK (TOTAL DOSE: 0; 5.6 MMOL) (STUDY DURATION: 124 WK), Dose: 0, 150 MG/L IN DRINKING WATER 5 D/WK FOR 50 WK (TOTAL DOSE: 0; 5.6 MMOL) (STUDY DURATION: 124 WK), Tumor Site: Type of Lesion: LIVER: HEPATOCELLULAR TUMOR) was “active; positive”.
Take `O=C(c1ccccc1)C(O)c1ccccc1` (stereo not given): the carcinogen call is “inactive; negative” (Species: MOUSE, Strain/Sex: B6C3F1/FEMALE, Route: ORAL, Dose: 0, 2500, 5000 PPM IN DIET, Dose: 0, 2500, 5000 PPM IN DIET); “inactive; negative” (Species: MOUSE, Strain/Sex: B6C3F1/MALE, Route: ORAL, Dose: 0, 2500, 5000 PPM IN DIET, Dose: 0, 2500, 5000 PPM IN DIET); “inactive; negative” (Species: RAT, Strain/Sex: F344/FEMALE, Route: ORAL, Dose: 0, 250, 500 PPM IN DIET, Dose: 0, 250, 500 PPM IN DIET); “inactive; negative” (Species: RAT, Strain/Sex: F344/MALE, Route: ORAL, Dose: 0, 125, 250 PPM IN DIET, Dose: 0, 125, 250 PPM IN DIET).
As to `O=P(O)(OCC(Br)CBr)OCC(Br)CBr` (stereo not given), the carcinogen call reads like this: (Species: RAT, Strain/Sex: WISTAR/FEMALE, Route: ORAL, Dose: 0, 80, 400, 2000 IN DIET FOR 24 MO (STUDY DURATION: 24 MO), Dose: 0, 80, 400, 2000 IN DIET FOR 24 MO (STUDY DURATION: 24 MO), Tumor Site: Type of Lesion: LIVER: HEPATOCELLULAR CARCINOMA, SMALL INTESTINE: ADENOCARCINOMA, FORESTOMACH: PAPILLOMA, ESOPHAGUS: PAPILLOMA, Tumor Site: Type of Lesion: LIVER: HEPATOCELLULAR CARCINOMA, SMALL INTESTINE: ADENOCARCINOMA, FORESTOMACH: PAPILLOMA, ESOPHAGUS: PAPILLOMA) “active; positive”; (Species: RAT, Strain/Sex: WISTAR/MALE, Route: ORAL, Dose: 0, 80, 400, 2000 IN DIET FOR 24 MO (STUDY DURATION: 24 MO), Dose: 0, 80, 400, 2000 IN DIET FOR 24 MO (STUDY DURATION: 24 MO), Tumor Site: Type of Lesion: SMALL INTESTINE: ADENOCARCINOMA, FORESTOMACH: PAPILLOMA, ESOPHAGUS: PAPILLOMA, Tumor Site: Type of Lesion: SMALL INTESTINE: ADENOCARCINOMA, FORESTOMACH: PAPILLOMA, ESOPHAGUS: PAPILLOMA) “active; positive”.
On to `O=[N+]([O-])c1ccc2ccc3cccc4c5ccccc5c1c2c34`, for which, under “Species: MOUSE, Strain/Sex: B6C3F1/MALE, Route: INTRAPERITONEAL, Dose: 0, 400 NMOL IN 35 µL DMSO ON DAYS 1 (1/7 TOTAL DOSE), 8 (2/7 TOTAL DOSE), AND 15 (4/7 TOTAL DOSE) AFTER BIRTH (STUDY DUR”, the carcinogen call is “inactive; negative”.
Consider `CC(=O)OC1CC(C)OC(C)O1` (stereo not given), for which the carcinogen call by setting is: (Species: MOUSE, Strain/Sex: B6C3F1/FEMALE, Route: GAVAGE, Dose: 0, 250, 500 MG/KG IN CORN OIL 5 D/WK FOR 103 WK (STUDY DURATION: 105 WK), Dose: 0, 250, 500 MG/KG IN CORN OIL 5 D/WK FOR 103 WK (STUDY DURATION: 105 WK)) “inactive; negative”; (Species: MOUSE, Strain/Sex: B6C3F1/MALE, Route: GAVAGE, Dose: 0, 250, 500 MG/KG IN CORN OIL 5 D/WK FOR 103 WK (STUDY DURATION: 105 WK), Dose: 0, 250, 500 MG/KG IN CORN OIL 5 D/WK FOR 103 WK (STUDY DURATION: 105 WK), Tumor Site: Type of Lesion: FORESTOMACH: SQUAMOUS PAPILLOMA OR SQUAMOUS CELL CARCINOMA) “equivocal”; (Species: RAT, Route: ORAL, Tumor Site: Type of Lesion: LIVER) “active; positive”; (Species: RAT, Strain/Sex: F344/FEMALE, Route: GAVAGE, Dose: 0, 125, 250 MG/KG IN CORN OIL 5 D/WK FOR 103 WK (STUDY DURATION: 105 WK), Dose: 0, 125, 250 MG/KG IN CORN OIL 5 D/WK FOR 103 WK (STUDY DURATION: 105 WK)) “inactive; negative”; (Species: RAT, Strain/Sex: F344/MALE, Route: GAVAGE, Dose: 0, 62.5, 125 MG/KG IN CORN OIL 5 D/WK FOR 103 WK (STUDY DURATION: 105 WK), Dose: 0, 62.5, 125 MG/KG IN CORN OIL 5 D/WK FOR 103 WK (STUDY DURATION: 105 WK)) “inactive; negative”.
On to `CCCCN(CC)N=O`, for which the carcinogen call was “active; positive” (Species: MOUSE, Strain/Sex: DBA/MALE,FEMALE, Route: ORAL, Dose: 10 MG/KG/D IN DRINKING WATER (TOTAL MEAN DOSE 2360 MG/KG), Tumor Site: Type of Lesion: FORESTOMACH: SQUAMOUS CELL CARCINOMA) and “active; positive” (Species: RAT, Strain/Sex: WISTAR/MALE, FEMALE, Route: ORAL, Dose: 0, 10 MG/KG/D FOR 4 WK THEN 5 MG/KG/D FOR DURATION OF STUDY (STUDY DURATION: LIFETIME), Tumor Site: Type of Lesion: ESOPHAGUS: CARCINOMA, PAPILLOMA, PHARYNX: PAPILLOMA, ORAL CAVITY: PAPILLOMA, LIVER: ANGIOSARCOMA, HEPATOCELLULAR CARCINO, Tumor Site: Type of Lesion: ESOPHAGUS: CARCINOMA, PAPILLOMA, PHARYNX: PAPILLOMA, ORAL CAVITY: PAPILLOMA, LIVER: ANGIOSARCOMA, HEPATOCELLULAR CARCINO).
With `Cc1cc(-c2ccc(N/N=C3\C=Cc4c(S(=O)(=O)O)cc(S(=O)(=O)O)c(N)c4C3=O)c(C)c2)ccc1N/N=C1\C=Cc2c(S(=O)(=O)O)cc(S(=O)(=O)O)c(N)c2C1=O`, the carcinogen call (Species: RAT, Route: INTRAPERITONEAL, Tumor Site: Type of Lesion: LIVER) was “active; positive”.
On to `ClCCOCCCl`, for which the carcinogen call reads like this: (Species: MOUSE, Strain/Sex: B6AKF1/MALE, Route: GAVAGE/ORAL, Dose: 100 MG/KG FROM DAY 7-28 OF LIFE THEN 300 MG/KG IN DIET, Tumor Site: Type of Lesion: LIVER: HEPATOMA) “active; positive”; (Species: MOUSE, Strain/Sex: B6C3F1/MALE,FEMALE, Route: GAVAGE/ORAL, Dose: 100 MG/KG FROM DAY 7-28 OF LIFE THEN 300 MG/KG IN DIET, Tumor Site: Type of Lesion: LIVER: HEPATOMA) “active; positive”; (Species: RAT, Strain/Sex: SPRAGUE-DAWLEY/MALE, Route: SUBCUTANEOUS, Dose: 0, 13.1, 4.36 UMOL IN DMSO 1/WK FOR 2 YR (STUDY DURATION: 2 YR), Dose: 0, 13.1, 4.36 UMOL IN DMSO 1/WK FOR 2 YR (STUDY DURATION: 2 YR)) “inactive; negative”; (Species: RAT, Strain/Sex: STRAIN-CD/MALE,FEMALE, Route: GAVAGE, Dose: 25, 50 MG/KG IN STEROID SUSPENDING VEHICLE 2/WK FOR 78 WK) “inactive; negative”.
